The values below come from ChEMBL document CHEMBL1201862, “PubChem BioAssay data set” (2004).

Holding throughout (assay): NCI-60 cell line screen, 48 h
The subject of assay [1] is A498.
The test system of assay [2] is A549.
In assay [3] the test system is ACHN.
The subject of assay [4] is COLO 205.
For assay [5], the system named is DU-145.
Assay [6] deals with HCC 2998.
The test system of assay [7] is HCT-15.
Assay [8] deals with HL-60.
In assay [9] the test system is HOP-62.
For assay [10], the system named is HT-29.
For assay [11], the system named is IGROV-1.
Assay [12] has as its system MCF7.
In assay [13] the test system is Malme-3M.
Assay [14] concerns NCI/ADR-RES.
Assay [15] concerns SK-MEL-28.
Assay [16] relates to SK-MEL-2.
For assay [17], the system named is SK-OV-3.
Assay [18] deals with SNB-19.
The test system of assay [19] is SW-620.
Assay [20] has as its system UO-31.

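Compound exposure: 48 hours, 5 concentrations, 96-well plates. GI50 is the concentration that inhibits growth by half.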 The source made the active and inactive calls. No stated cut-off is given here; in the data, active = GI50 up to about 1.1 µM and inactive = higher.

Take `CCSc1nc(N2CCCC2)s[s+]1.[O-][Cl+3]([O-])([O-])[O-]`: the GI50 in assay [1] is 6.75 µM (inactive); in assay [2] it was 18.9 µM (inactive); in assay [3] it was 54.3 µM (inactive); in assay [4], 2.23 µM (inactive); in [5] it was > 100 µM (inactive); in assay [6], 73.6 µM (inactive). The GI50 was 27.4 µM in assay [7]; 2.92 µM (inactive) in assay [8]; 56.5 µM (inactive) in assay [9]; 0.582 µM (active) in assay [10]; 4.07 µM (inactive) in assay [11]; 0.167 µM (active) in assay [12]. Also, the GI50 in assay [13] was 53.3 µM (inactive); in assay [14], > 100 µM (inactive); in [15], 36.5 µM (inactive); in assay [16], 60.7 µM (inactive); in assay [17], 84.1 µM (inactive); in [18], > 100 µM (inactive). For the same molecule, the GI50 in assay [19] was 34.4 µM (inactive); in [20], 42.1 µM (inactive).
Take `CN(C)c1ccc(/C=C2\N=C(c3ccccc3)N(/N=C3\C(=O)Nc4ccccc43)C2=O)cc1`: the GI50 in assay [1] is 73.6 µM (inactive); in [2], 74.1 µM (inactive); in [3], 65.9 µM (inactive); in assay [4], 30.2 µM (inactive); in assay [5] it was 61.9 µM (inactive); in assay [6], 52.4 µM (inactive). Besides, the GI50 was 61.5 µM in assay [7]; 35.2 µM (inactive) in [8]; > 100 µM (inactive) in [9]; 53.8 µM (inactive) in assay [10]; 25.9 µM (inactive) in assay [11]; 35.8 µM (inactive) in [12]. Besides, the GI50 in assay [13] was 45.9 µM (inactive); in assay [14] it was 83.8 µM (inactive); in assay [15] it was > 100 µM (inactive); in [16], 37.7 µM (inactive); in [17], > 100 µM (inactive); in [18], > 100 µM (inactive). In addition, the GI50 in assay [19] is 65 µM (inactive); in [20], 36 µM (inactive).
For `Cc1ccc(-c2cn3c(nc4ccccc43)c(C)n2)cc1`, the GI50 in assay [1] is 19.8 µM (inactive); in assay [2], 55.1 µM (inactive); in assay [3], 30.3 µM (inactive); in [4] it was 49.9 µM (inactive); in [5], 46.5 µM (inactive); in assay [6], > 100 µM (inactive). The GI50 in assay [7] was 25.2 µM; in [8] it was 26.5 µM (inactive); in [9] it was 30.8 µM (inactive); in [10] it was 24.4 µM (inactive); in assay [11] it was 11.7 µM (inactive); in assay [12] it was 0.578 µM (active). The GI50 in [13] is 37.6 µM (inactive); in assay [14], 40.1 µM (inactive); in assay [15], 58.2 µM (inactive); in [16] it was > 43.4 µM (inactive); in [17] it was 7.66 µM (inactive); in [18] it was 66.2 µM (inactive). For the same molecule, the GI50 in assay [19] was > 100 µM (inactive); in assay [20], 2.71 µM (inactive).
In the case of `CNc1ccc(C)cc1S(=O)(=O)c1ccccc1[N+](=O)[O-]`, the GI50 is 62.5 µM (inactive) in assay [1]; 41.3 µM (inactive) in assay [2]; 30.8 µM (inactive) in [3]; 65.6 µM (inactive) in assay [4]; > 100 µM (inactive) in assay [5]; 92.5 µM (inactive) in assay [6]. For the same molecule, the GI50 is 41.3 µM in assay [7]; > 10 µM (inactive) in assay [8]; 58.9 µM (inactive) in assay [9]; 48.1 µM (inactive) in assay [10]; 58.5 µM (inactive) in assay [11]; 30 µM (inactive) in assay [12]. The GI50 was 60.3 µM (inactive) in [13]; 42.3 µM (inactive) in [14]; 38.8 µM (inactive) in assay [15]; 62.4 µM (inactive) in [16]; 91 µM (inactive) in assay [17]; 78 µM (inactive) in assay [18]. In addition, the GI50 was 69.8 µM (inactive) in assay [19] and 52.5 µM (inactive) in [20].
On to `CCOC(=O)CCC(NC(=O)c1ccc(Nc2nc3ccccc3n3cccc23)cc1)C(=O)OCC` (stereo not given), for which the GI50 in assay [1] is 70.1 µM (inactive); in assay [2], 39.6 µM (inactive); in assay [3] it was 20.6 µM (inactive); in [4] it was 53.8 µM (inactive); in [5] it was 28.9 µM (inactive); in [6], 29.8 µM (inactive). Further, the GI50 in assay [7] is 29.7 µM; in assay [8] it was > 100 µM (inactive); in assay [9], 23.7 µM (inactive); in assay [10], 17.9 µM (inactive); in assay [11], 35.5 µM (inactive); in assay [12], 16.6 µM (inactive). The GI50 in assay [13] is 37.2 µM (inactive); in assay [14], 19.5 µM (inactive); in assay [15], 47.6 µM (inactive); in assay [16], 20 µM (inactive); in assay [17] it was 24.1 µM (inactive); in assay [18], 42.1 µM (inactive). Besides, the GI50 was 81.7 µM (inactive) in assay [19] and 44.9 µM (inactive) in assay [20].
`O=C1c2cc(Br)ccc2-c2ccc3c4ccc5c6c(ccc(c7ccc1c2c73)c64)C(=O)c1cc(Br)ccc1-5`: the GI50 in assay [1], in [2], in assay [3], in assay [4], in assay [5] and in assay [6] was > 100 µM (inactive) each time. In addition, the GI50 is more than 100 µM in assay [7]; 25.8 µM (inactive) in [8]; > 100 µM (inactive) in assay [9]; > 100 µM (inactive) in assay [10]; > 100 µM (inactive) in assay [11]; > 100 µM (inactive) in [12]. Also, the GI50 in assay [13], in assay [14], in assay [15], in assay [16], in [17] and in assay [18] was > 100 µM (inactive) throughout. Further, the GI50 in assay [19] and in assay [20] was > 100 µM (inactive) throughout.
